What was measured:
[1] = tested on: TiLV-positive IgM; assay: Indirect ELISA, affinity of synthetic peptides for TiLV-positive serum; format: binding, tilapia; conditions: peptides 0.1 to 100 μg/mL
Description: The indirect ELISA was used to determine the affinity of synthetic peptides for the scFv1 protein and TiLV-positive serum. For the affinity detection of scFv1, the synthetic peptides were diluted at different concentrations (0.01–100 μg/mL) and coated in a microplate. After blocking, scFv1 protein (50 µg/mL) was added and incubated for 2 h at 37°C. In order to reduce the interference of non-specific binding, 50 µg/mL of BSA protein was used as a control for the analysis of binding to the antigenic peptides. Subsequently, 100 µL of 6×His-tag mouse mAb was added to each well and incubated for 1 h, followed by the addition of 100 µL of HRP-conjugated goat anti-mouse IgG for another hour. The color development and OD measurements were performed as described previously. For the affinity detection of serum, 100 µL of positive serum (1:200) was added to each well. The primary antibody was then replaced with mouse anti-tilapia IgM mAb (Frdbio), while all other steps remained unchanged.

[2] = tested on: tilapia IgM; assay: Serum antibody levels of tilapia after immunization with epitope peptides (ELISA); format: in vivo, Nile tilapia (Oreochromis niloticus); conditions: for immunogenicity (serum IgM antibody levels) after primary and booster immunization: 20 µg peptide i.m., booster after 14 days, 7-42 days; for immunogenicity (serum antibody titer) after single immunization: 20 µg peptide i.m. with Freund's adjuvant, 7-28 days
Source text: Epitope vaccines usually need to be modified with Freund’s adjuvant (Beyotime) before immunization. Briefly, for a single immunization, the epitope peptide is mixed with an equal dose of complete Freund’s adjuvant and then administered to tilapia. For booster immunization, an equal dose of incomplete Freund’s adjuvant is fused with the epitope peptide before vaccination. For the S1, S3, and S10 epitope vaccine immunization programs, healthy Oreochromis niloticus were divided into six groups (70 fish per group) and vaccinated with 20 µg of peptide vaccine by intramuscular injection. During the 1–4 week immunization period, we collected four fish serum samples weekly for immunological analysis.
In the immunization experiments based on the P30-designed vaccine, healthy Nile tilapia were divided into four groups (70 fish per group) and injected intramuscularly with 20 µg of peptide vaccine to complete the primary immunization. After 14 days, the same dose of vaccine was administered again to complete the booster immunization. Serum and tissue samples were collected from 4 fishes in each group weekly after the primary immunization, for a total of 6 weeks. Furthermore, a PBS control was incorporated into both immunization experiments, and the immunization process was conducted in accordance with the aforementioned methodology.
Serum antibody levels after immunization were determined by indirect ELISA. Specifically, serum samples were diluted appropriately, coated to enzyme-labeled plates, and incubated overnight at 4°C. After being washed three times with PBST buffer, each well was incubated with mouse anti-tilapia IgM mAb (1:5,000) at 37°C for 1 h. After washing, each well was incubated with HRP-conjugated goat anti-mouse IgG (1:5,500) for an additional hour. Color development was carried out as described above.

[3] = tested on: scFv1; assay: Co-immunoprecipitation of epitope peptides with scFv1 in HEK293T cells; format: cell-based, Nile tilapia (Oreochromis niloticus); conditions: for Co-IP with scFv1, His-tag system: His-tagged peptide and Flag-scFv1 co-transfected in HEK293T; for Co-IP with scFv1, GFP tag system: pEGFP-peptide and pCMV-Flag-scFv1 co-transfected in HEK293T, 48 h
Description: Protein samples were extracted following the co-transfection of HEK293T cells with plasmids containing P30, S390F, G394K, and scFv1 for 48 h, respectively. Subsequent Co-IP assays were performed using the kit (Beyotime) in accordance with the provided protocol. In brief, TBS-washed protein A + G magnetic beads were incubated with GFP-tagged IgG2a mAb (1:3,000, Proteintech) for 1 h at room temperature. Subsequently, the samples were incubated at 4°C overnight. Following the washing of the beads with cell lysates containing protease inhibitors, protein elution was completed with SDS-PAGE loading buffer (Solarbio) for protein blotting. In the Western blot analysis, the GFP-tagged IgG2a mAb (1:3,000) and the Flag-tagged mouse mAb (1:2,000, Beyotime) were employed to identify the IP and input protein samples, respectively. Furthermore, all samples were characterized with a reference protein antibody (β-actin) as a standard control. Enzyme-labeled secondary antibodies consisted of HRP-conjugated goat anti-mouse IgG (1:4,000). The bands were visualized using the ECL Plus hypersensitive luminescent solution (Solarbio) and photographed with a chemiluminescence program. In addition, the His tag system was also used to verify the interaction between epitope peptides, such as P30 and scFv1. Plasmids encoding P30, S390F, and G394K fused with His tags and the plasmid encoding scFv1 fused with a Flag tag were co-transfected into HEK293T cells, respectively. The His-tag monoclonal antibody (1:500, Proteintech) was bound to A + G magnetic beads and used to detect the interaction, and all other operation steps were performed as described above.

[4] = tested on: scFv1; assay: Yeast two-hybrid assay of epitope peptides with scFv1; format: cell-based, Nile tilapia (Oreochromis niloticus); conditions: pGBKT-scFv1 bait, pGADT-peptide; Y2Hgold; 96 h
Description: The pGBKT-scFv1 bait plasmid was transformed into Y2Hgold yeast competent cells (WEIDI) and cultured in SD-deficient medium (Beijing Zoman Biotechnology Co., Ltd.) to confirm the absence of self-activation. Subsequently, pGADT-P30, pGADT-S390F, and pGADT-G394K plasmids, along with the pGBKT-scFv1 bait plasmid, were co-transformed into Y2Hgold yeast competent cells. The cells were then cultured on LT-deficient SD and LTHA-deficient SD medium for 48–96 h to observe the expression of the reporter genes. Additionally, the pGADT-T plasmid was co-transformed with the pGBKT-53 and pGBKT-lam plasmids and cultured as positive and negative controls, respectively.

[5] = tested on: scFv1; assay: Cellular co-localization of epitope peptides with scFv1 in HEK293T cells; format: cell-based, Nile tilapia (Oreochromis niloticus); conditions: pEGFP-peptide and pCMV-DsRed-scFv1 in HEK293T, 48 h, confocal
Description: The pEGFP-P30, S390F, and G394K plasmids, along with the pCMV-C-DsRed-scFv1 plasmid, were co-transfected into HEK293T cells and cultured for 48 h. Afterward, the cells were fixed with 4% paraformaldehyde, permeabilized, and stained with DPAI (Beyotime), which contains an anti-fluorescence quencher. The expression and co-localization of proteins in cells were observed using confocal fluorescence microscopy.

[6] = tested on: scFv1; assay: Western blot, binding of S3 epitope peptide and mutants to GST-scFv1; set-up: species or system Nile tilapia (Oreochromis niloticus); conditions: PVDF membrane with GST-scFv1 incubated with S3 proteins 37°C 2 h; 6×His tag antibody
Description: The PET-N-GST-scFv1 plasmid was constructed using seamless cloning technology (Vazyme), and the protein was obtained through a prokaryotic expression system. The scFv1 protein was purified using GST resin (Beyotime) and stored after lyophilization. Similarly, S3-WT, S3-MuT-^Y386^A, S3-MuT-^R393^A, S3-MuT-^L398^A, and S3-MuT were expressed in prokaryotes using the pET32a plasmid. In the Western blot experiment, after blocking, the PVDF membrane containing GST-scFv1 blots was incubated with each of the five S3 proteins at 37°C for 2 h. Subsequently, the anti-6×His tag mouse mAb was used as the primary antibody, and HRP-conjugated goat anti-mouse IgG was used as the secondary antibody. The ECL color development steps were performed as described above.

[7] = target: T1, S10-WT epitope peptide (S10 55–66) (tilapia lake virus (TiLV)); assay: ELISA; conditions: both partners purified
T1 construct: source: synthetic peptide (solid phase, SynthBio)
T1 peptide: NIEWGDEVDLEM

[8] = target: T2, S3-WT epitope peptide (S3 385–400) (tilapia lake virus (TiLV)); assay: ELISA; conditions: both partners purified
T2 construct: source: synthetic peptide (solid phase, SynthBio)
T2 peptide: GYQLASEIRGTIPLSS

[9] = target: T3, S1-Mut epitope peptide (S1 231–250, alanine mutant) (tilapia lake virus (TiLV)); assay: ELISA; conditions: both partners purified
T3 construct: source: synthetic peptide (solid phase, SynthBio)
T3 peptide: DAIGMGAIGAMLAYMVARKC

[10] = target: T4, S1-WT epitope peptide (S1 231–250) (tilapia lake virus (TiLV)); assay: ELISA; conditions: both partners purified
T4 construct: source: synthetic peptide (solid phase, SynthBio)
T4 peptide: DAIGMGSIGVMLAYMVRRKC

[11] = target: T5, S10-Mut epitope peptide (S10 55–66, alanine mutant) (tilapia lake virus (TiLV)); assay: ELISA; conditions: both partners purified
T5 construct: source: synthetic peptide (solid phase, SynthBio)
T5 peptide: NIEAGAAVALEM

[12] = target: T6, S390F epitope peptide (P30 with S390F), synthetic (tilapia lake virus (TiLV), S390F (stands in the printed letters)); assay: SPR; conditions: both partners purified
T6 construct: source: synthetic peptide (solid phase, SynthBio)
T6 peptide: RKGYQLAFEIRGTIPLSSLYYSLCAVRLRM

## RKGYQLASEIRGTIPLSSLYYYLCAVRLRM [S404Y]
[1]
  affinity to TiLV-specific positive serum: did not show improved affinity compared to P30
[2]
  immunogenicity (serum IgM antibody levels) after primary and booster immunization: failed to show significantly improved immunogenicity

## RKGYQLASEIRKTIPLSSLYYSLCAVRLRM [G394K]
[3]
  Co-IP with scFv1, His-tag system: did not
  Co-IP with scFv1, GFP tag system: negative in the Co-IP reaction
[4]
  yeast two-hybrid growth on LTHA-deficient SD medium: did not exhibit any growth
[5]
  co-localization with scFv1 in cells: failed to bind to the antibody

## NIEAGAAVALEM [S10MuT]
[2]
  immunogenicity (serum antibody titer) after single immunization: lower antibody stimulation level

## NIEWGDEVDLEM [S10WT]
[2]
  immunogenicity (serum antibody titer) after single immunization: robust immune responses

## RKGYQLASEIRGFIPLSSLYYSLCAVRLRM [T395F]
[1]
  affinity to TiLV-specific positive serum: did not show improved affinity compared to P30
[2]
  immunogenicity (serum IgM antibody levels) after primary and booster immunization: failed to show significantly improved immunogenicity

## GAQLASEIAGTIPASS [S3MuT]
[6]
  binding to GST-scFv1 by Western blot: did not show the protein
[2]
  immunogenicity (serum antibody titer) after single immunization: lower antibody stimulation level

## DAIGMGSIGVMLAYMVRRKC [S1WT]
[2]
  immunogenicity (serum antibody titer) after single immunization: robust immune responses

## RKGYQLASEIRGTIPLSSLYYSLCAVRLRM [P30]
[3]
  Co-IP with scFv1, His-tag system: showed interactions with scFv1
  Co-IP with scFv1, GFP tag system: able to bind to the antibody
[4]
  yeast two-hybrid growth on LTHA-deficient SD medium: exhibited plaque growth
[5]
  co-localization with scFv1 in cells: co-localized with the antibody

## DAIGMGAIGAMLAYMVARKC [S1MuT]
[2]
  immunogenicity (serum antibody titer) after single immunization: lower antibody stimulation level

B1: scFv1, prokaryote-expressed (pET32a-scFv1) (scFv)
scFv: MSHRLTCAYSGFSSDIHAVWVRQAAGKGLEWIAYISDSSAYIYYSQSVRGRFTISRDNSRKQVYLQMNSLTTEDSAVYYCTREGSGFAFDYWGKGTGGGGSGGGGSGGGGSVTISATGSSNIGADLSWYLQKTGETPKLLIYKASTRSSGTPPRFSGSTSGSQYTLTISGVQAEDAGDYYCLGDHGGGALTFGGGTK
notes: also called antibody scFv1; source: E. coli BL21, prokaryotic expression (pET32a-scFv1); freeze-dried, dissolved in PBS
[7]
  binding result: binds
[8]
  binding result: binds
[9]
  binding result: binds
[10]
  binding result: binds
[11]
  binding result: binds
[12]
  Kd: 573 nM

B2: scFv1, expressed in CHO cells (pcDNA3.1-scFv1) (scFv)
scFv: MSHRLTCAYSGFSSDIHAVWVRQAAGKGLEWIAYISDSSAYIYYSQSVRGRFTISRDNSRKQVYLQMNSLTTEDSAVYYCTREGSGFAFDYWGKGTGGGGSGGGGSGGGGSVTISATGSSNIGADLSWYLQKTGETPKLLIYKASTRSSGTPPRFSGSTSGSQYTLTISGVQAEDAGDYYCLGDHGGGALTFGGGTK
notes: also called eukaryote-expressed scFv1; source: CHO cells, eukaryotic expression (pcDNA3.1-scFv1)
[7]
  binding result: binds
[8]
  binding result: binds
[9]
  binding result: binds
[10]
  binding result: binds
[11]
  binding result: binds

From publication PMC12724136, “Design of antibody structure-guided epitope vaccines in silico to induce potent immune responses against emerging viruses” (Journal of Virology, 2025)
